Experimental data from article PMC8682804 (Science signaling, 2021).

Tests used:
[1] = biological target: T1, PTHR (Homo sapiens, UniProt Q03431); assay: Time-course measurement of cAMP by FRET; assay type: cell-based; settings: comparison of PTH^WT and its diastereomers, fig. S1B
T1 sequence (Q03431 27-593): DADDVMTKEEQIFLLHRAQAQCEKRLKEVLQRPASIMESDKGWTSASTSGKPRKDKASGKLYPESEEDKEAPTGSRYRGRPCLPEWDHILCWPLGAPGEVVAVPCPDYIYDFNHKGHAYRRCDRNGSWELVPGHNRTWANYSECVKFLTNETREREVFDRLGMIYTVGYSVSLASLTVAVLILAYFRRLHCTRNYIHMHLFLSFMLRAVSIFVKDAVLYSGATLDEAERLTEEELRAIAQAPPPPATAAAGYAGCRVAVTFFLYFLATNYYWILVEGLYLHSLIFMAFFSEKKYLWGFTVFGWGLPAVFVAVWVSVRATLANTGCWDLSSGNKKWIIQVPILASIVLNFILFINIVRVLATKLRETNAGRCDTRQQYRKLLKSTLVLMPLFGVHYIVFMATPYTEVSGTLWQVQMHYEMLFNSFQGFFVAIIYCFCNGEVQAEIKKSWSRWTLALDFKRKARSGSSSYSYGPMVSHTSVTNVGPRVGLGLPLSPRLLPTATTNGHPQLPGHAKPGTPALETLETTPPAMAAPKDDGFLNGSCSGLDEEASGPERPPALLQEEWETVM

[2] = biological target: T2, PTHR^CFP and βarr-2^YFP (Homo sapiens, UniProt Q03431); assay: Time-course of β-arr2 recruitment by FRET; assay type: cell-based; settings: comparison of PTH^WT and its diastereomers, fig. S1C
T2 sequence (Q03431 27-593): T1 sequence (Q03431 27-593)

[3] = biological target: PTHR in membranes of HEK-293-Gs-null cells (clone CL2) (UniProt Q03431); assay: radioligand binding

| cAMP production time course [1] | Substance | interaction of PTHR with β-arr2, time course [2] | IC50 [3] [nM] |
| --- | --- | --- | --- |
| indistinguishable increases in cAMP | (D)-Asn([10])-PTH1–34 [PTH^10d] | stimulated the interaction of PTHR with β-arr2 |  |
|  | (D)-Leu(7)-PTH_(1–34)-NH2 (PTH^7d) (peptide) |  | 0.1 |
|  | PTH_(1–34) (PTH^WT), the synthetic N-terminal fragment of parathyroid hormone (peptide) |  | 0.1 |
